Source: patent US8759385B2, “Composition comprising azole fungicide and water soluble metal salt” (Conopco Inc., priority 2009, dated 2014)

System: Trypsin
Assay: anti-trypsin effect (normalised trypsin activity)
Type: biochemical
Conditions: control (trypsin only) = 1.0

Row | Compound | Normalised activity (Zinc gluconate 0.00156% alone) | Normalised activity (Zinc gluconate 0.003125% alone) | Normalised activity (Zinc gluconate 0.00625% alone) | Normalised activity (Climbazole 0.00391% alone) | Normalised activity (Climbazole 0.00781% alone) | Normalised activity (Climbazole 0.01563% alone) | Normalised activity (Climbazole 0.03125% alone) | Normalised activity (Climbazole 0.0625% alone) | Normalised activity (Climbazole 0.125% alone)
1 | Zinc gluconate | 1.03 | 0.957 | 0.8404 |  |  |  |  |  | 
2 | CC(C)(C)C(=O)C(Oc1ccc(Cl)cc1)n1ccnc1 (stereo not drawn) [Climbazole] |  |  |  | 1.15 | 1.31 | 1.41 | 1.30 | 0.908 | 1.06
